This is an account of results in patent publication US9120770B2, “Substituted pyridine and pyrazine compounds as PDE4 inhibitors” (DART NEUROSCIENCE (CAYMAN) LTD., priority 2013, dated 2015).

Each structure is given as a SMILES string.

This assay addresses PDE4D3 (Homo sapiens, UniProt Q08499).

Chain of PDE4D3 (Q08499 1-673 isoform Q08499-2): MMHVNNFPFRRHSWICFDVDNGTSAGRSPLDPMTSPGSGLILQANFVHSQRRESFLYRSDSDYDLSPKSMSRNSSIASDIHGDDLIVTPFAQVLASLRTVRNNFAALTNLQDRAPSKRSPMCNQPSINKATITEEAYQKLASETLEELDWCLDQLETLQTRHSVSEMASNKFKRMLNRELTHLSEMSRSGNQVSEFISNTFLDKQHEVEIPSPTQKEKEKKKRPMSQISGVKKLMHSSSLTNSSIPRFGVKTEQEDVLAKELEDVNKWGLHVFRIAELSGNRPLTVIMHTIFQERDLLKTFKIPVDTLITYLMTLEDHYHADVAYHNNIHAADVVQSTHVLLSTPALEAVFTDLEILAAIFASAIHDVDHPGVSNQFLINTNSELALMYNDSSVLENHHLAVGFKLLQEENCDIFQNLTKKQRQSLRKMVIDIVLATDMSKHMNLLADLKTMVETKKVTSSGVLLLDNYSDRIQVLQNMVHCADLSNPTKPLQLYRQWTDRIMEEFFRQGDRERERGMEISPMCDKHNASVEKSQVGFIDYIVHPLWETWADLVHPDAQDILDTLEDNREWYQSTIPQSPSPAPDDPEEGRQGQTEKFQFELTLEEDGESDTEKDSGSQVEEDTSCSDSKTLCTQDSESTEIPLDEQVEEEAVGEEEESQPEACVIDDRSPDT

For `CCOc1cccc(-c2cc(Cn3cc(CO)nn3)cnc2OC(F)F)c1` [Example 264, (1-((6-(Difluoromethoxy)-5-(3-ethoxyphenyl)pyridin-3-yl)methyl)-1H-1,2,3-triazol-4-yl)methanol], the EC50 – broadly, the concentration needed to bring the measured effect to its halfway point – was below 100 nM.
For `COc1ncc(Cc2ccc(CN)cc2)cc1-c1cccc(Cl)c1` [Example 59, (4-{[5-(3-Chlorophenyl)-6-methoxypyridin-3-yl]methyl}phenyl)methanamine] the value was 100 to 1000 nM; for `CCOc1ncc(Cn2ncc(Cl)c2N)cc1-c1cccc(Cl)c1` [Example 235, 4-Chloro-1-{[5-(3-chlorophenyl)-6-ethoxypyridin-3-yl]methyl}-1H-pyrazol-5-amine], 1000 to 10000 nM.
`NC(=O)c1cncc(Cc2cnc(OC(F)F)c(-c3cccc(Cl)c3)c2)c1` [Example 70, 5-{[5-(3-Chlorophenyl)-6-(difluoromethoxy)pyridin-3-yl]methyl}pyridine-3-carboxamide] returned an EC50 of 1000 to 10000 nM.
`COc1ncc(Cn2cc(CO)cn2)cc1-c1cccc(OC(F)F)c1` [Example 272, [1-({5-[3-(Difluoromethoxy)phenyl]-6-methoxypyridin-3-yl}methyl)-1H-pyrazol-4-yl]methanol]: the EC50 was below 100 nM.
For `Cc1cccc(-c2cc(Cn3cncn3)cnc2OC(F)F)c1` [Example 12, 2-(Difluoromethoxy)-3-(3-methylphenyl)-5-(1H-1,2,4-triazol-1-ylmethyl)pyridine] the value was 100 to 1000 nM; for `CCOc1cccc(-c2cc(Cn3cnc(CF)n3)cnc2OC(F)F)c1` [Example 255, 2-(Difluoromethoxy)-3-(3-ethoxyphenyl)-5-{[3-(fluoromethyl)-1H-1,2,4-triazol-1-yl]methyl}pyridine], 100 to 1000 nM.
With `COc1ncc(Cn2ncnc2C(C)(C)O)cc1-c1cccc(Cl)c1` [Example 249, 2-(1-{[5-(3-Chlorophenyl)-6-methoxypyridin-3-yl]methyl}-1H-1,2,4-triazol-5-yl)propan-2-ol], the EC50 was above 10000 nM.
To `COc1ncc(Cn2cc([N+](=O)[O-])cn2)cc1-c1cccc(Cl)c1` [Example 180, 3-(3-Chlorophenyl)-2-methoxy-5-[(4-nitro-1H-pyrazol-1-yl)methyl]pyridine] belongs 100 to 1000 nM; to `COc1ncc(Cc2cnc(N)nc2)cc1-c1cccc(F)c1` [Example 38, 5-{[5-(3-Fluorophenyl)-6-methoxypyridin-3-yl]methyl}pyrimidin-2-amine], below 100 nM; to `COc1ncc(Cn2cnc(CF)n2)cc1-c1cccc(OC(F)F)c1` [Example 253, 3-[3-(Difluoromethoxy)phenyl]-5-{[3-(fluoromethyl)-1H-1,2,4-triazol-1-yl]methyl}-2-methoxypyridine], below 100 nM.
`CCOc1ncc(Cn2cc(CO)nn2)nc1-c1cccc(OC(F)F)c1` [Example 265, [1-({6-[3-(Difluoromethoxy)phenyl]-5-ethoxypyrazin-2-yl}methyl)-1H-1,2,3-triazol-4-yl]methanol] showed an EC50 of 100 to 1000 nM.
Compound `COc1cccc(-c2cc(Cn3cncn3)cnc2OC)n1` [Example 4, 2-Methoxy-3-(6-methoxypyridin-2-yl)-5-(1H-1,2,4-triazol-1-ylmethyl)pyridine] had a concentration giving a half-maximal response (EC50) above 10000 nM.
In the case of `COc1ncc(Cc2ccncc2)cc1-c1cccc(Cl)c1` [Example 53, 3-(3-Chlorophenyl)-2-methoxy-5-(pyridin-4-ylmethyl)pyridine], the EC50 fell in the range of 100 to 1000 nM.
On to `FC(F)Oc1ncc(Cc2cnccn2)cc1-c1cccc(Cl)c1` [Example 110, 2-{[5-(3-Chlorophenyl)-6-(difluoromethoxy)pyridin-3-yl]methyl}pyrazine], for which the EC50 is below 100 nM.
For `COc1ncc(Cc2ccc(F)cc2)cc1-c1cccc(Cl)c1` [Example 88, 3-(3-Chlorophenyl)-5-[(4-fluorophenyl)methyl]-2-methoxypyridine] the value was 100 to 1000 nM.
For `COc1ncc(C(C)(O)c2ccc(F)cc2)cc1-c1cccc(Cl)c1` (stereo not drawn) [Example 15, 1-[5-(3-Chlorophenyl)-6-methoxypyridin-3-yl]-1-(4-fluorophenyl)ethan-1-ol], the EC50 is 1000 to 10000 nM.
For `COc1ncc(Cn2cnc(C(F)(F)F)n2)cc1-c1cccc(OC(F)F)c1` [Example 159, 3-[3-(Difluoromethoxy)phenyl]-2-methoxy-5-{[3-(trifluoromethyl)-1H-1,2,4-triazol-1-yl]methyl}pyridine], the EC50 lay in the range of 100 to 1000 nM.
Consider `Nc1ccc(Cc2cnc(OC(F)F)c(-c3cccc(Cl)c3)c2)cn1` [Example 33, 5-{[5-(3-Chlorophenyl)-6-(difluoromethoxy)pyridin-3-yl]methyl}pyridin-2-amine], for which the EC50 was below 100 nM.
To `NC(=O)C1(c2ccc(Cc3cnc(OC(F)F)c(-c4cccc(Cl)c4)c3)cc2)CC1` [Example 245, 1-(4-{[5-(3-Chlorophenyl)-6-(difluoromethoxy)pyridin-3-yl]methyl}phenyl)cyclopropane-1-carboxamide] belongs 100 to 1000 nM; to `COc1ncc(Cc2ccc(=O)n(C)c2)cc1-c1cccc(Cl)c1` [Example 52, 5-{[5-(3-Chlorophenyl)-6-methoxypyridin-3-yl]methyl}-1-methyl-1,2-dihydropyridin-2-one], 1000 to 10000 nM.
Compound `COc1ncc(Cc2cnc(N)nc2)nc1-c1cccc(OC(F)F)c1` [Example 106, 5-({6-[3-(Difluoromethoxy)phenyl]-5-methoxypyrazin-2-yl}methyl)pyrimidin-2-amine] displayed an EC50 below 100 nM.
`COc1ncc(Cc2cnc(NC(C)=O)nc2)cc1-c1cccc(Cl)c1` [Example 44, N-(5-[{5-(3-Chlorophenyl)-6-methoxypyridin-3-yl]methyl}pyrimidin-2-yl)acetamide] displayed a concentration giving a half-maximal response (EC50) of 100 to 1000 nM.
As for `COc1ncc(Cc2cc(C)nc(C)c2)cc1-c1cccc(Cl)c1` [Example 61, 3-(3-Chlorophenyl)-5-[(2,6-dimethylpyridin-4-yl)methyl]-2-methoxypyridine], the EC50 was 1000 to 10000 nM.
To `COc1ncc(Cc2ccc(C(N)=O)nc2)cc1-c1cccc(Cl)c1` [Example 116, 5-{[5-(3-Chlorophenyl)-6-methoxypyridin-3-yl]methyl}pyridine-2-carboxamide] belongs 100 to 1000 nM; to `CCOc1ncc(Cn2ncnc2COC)nc1-c1cccc(OC(F)F)c1` [Example 190, 3-[3-(Difluoromethoxy)phenyl]-2-ethoxy-5-{[5-(methoxymethyl)-1H-1,2,4-triazol-1-yl]methyl}pyrazine], 1000 to 10000 nM; to `COc1ncc(Cn2cncn2)cc1-c1cc(Cl)cs1` [Example 142, 3-(4-Chlorothiophen-2-yl)-2-methoxy-5-(1H-1,2,4-triazol-1-ylmethyl)pyridine], 100 to 1000 nM.
For `COc1ncc(Cn2ccnc2)nc1-c1cccc(Cl)c1` [Example 183, 3-(3-Chlorophenyl)-5-(1H-imidazol-1-ylmethyl)-2-methoxypyrazine] the value was below 100 nM; for `COc1ncc(Cn2cncn2)cc1-c1cccc(S(C)(=O)=O)c1` [Example 9, 3-(3-Methanesulfonylphenyl)-2-methoxy-5-(1H-1,2,4-triazol-1-ylmethyl)pyridine], above 10000 nM; for `COc1ncc(Cc2cnc(OC)c(-c3cccc(Cl)c3)n2)cn1` [Example 55, 3-(3-Chlorophenyl)-2-methoxy-5-[(2-methoxypyrimidin-5-yl)methyl]pyrazine], below 100 nM.
